Measurements: patent US8269017B2, “Compounds for the treatment of proliferative disorders” (Synta Pharmaceuticals Corporation, priority 2005, dated 2012)
“Also recorded” adds a separate entry of the source. Where two headings read alike, the source gives them in different places.

Experiments:
[1] = system: human tumor cell line MDA-MB-435S; assay: Nude mouse xenograft, MDA-MB-435S (Example 10); format: in vivo; details: Compound 169 at 2 mg/kg, Compound 174 at 4.55 mg/kg body weight, i.v., 1 time/week, 3 doses
Procedure: (§1) Seven to eight week old, female Crl:CD-1-nuBR (nude) mice were obtained from Charles River Laboratories (Wilmington, Mass., USA). Animals were housed 4-5/cage in micro-isolators, with a 12 hr/12 hr light/dark cycle, acclimated for at least 1 week prior to use and fed normal laboratory chow ad libitum. Studies were conducted on animals between 8 and 10 weeks of age at implantation. To implant MDA-MB-4355 tumor cells into nude mice, the cells were trypsinized as above, washed in PBS and resusupended at a concentration of 50×10(6) cells/ml in PBS. Using a 27 gauge needle and 1 cc syringe, 0.1 ml of the cell suspension was injected into the corpus adiposum of nude mice. The corpus adiposum is a fat body located in the ventral abdominal vicera in the right quadrant of the abdomen at the juncture of the os coxae (pelvic bone) and the os femoris (femur).
Tumors were then permitted to develop in vivo until the majority reached an average of 100-200 mm^3 in tumor volume, which typically required 2-3 weeks following implantation. […] Tumor volumes (V) were calculated by caliper measurement of the width (W), length (L) and thickness (T) of tumors using the following formula: V=0.5236×(L×W×T). Animals were randomized into treatment groups so that the median tumor volumes of each group were similar at the start of dosing. % T/C values, as a measure of efficacy, were determined as follows: • (i) If ΔT>0: % T/C=[…] • (ii) If ΔT<0: % T/C=(ΔT/T0)×100 • (iii) ΔT=Change in median tumor volume between start of dosing and the end of study. • (iv) ΔC=Change in median tumor volume between start of dosing and the end of study. • (v) T0=Median tumor volume at start of dosing.
(§2) Compounds were formulated in either D5W (Compounds 169 and 174) or DRD (Compound 178). For formulations in D5W, solutions of test articles were prepared by dissolving the appropriate amounts of each compound in 5% dextrose in water (Abbott Laboratories, North Chicago, Ill., USA) by sonication in an ultrasonic water bath. For formulations in DRD, stock solutions of test articles were prepared by dissolving the appropriate amounts of each compound in dimethyl sulfoxide (DMSO) by sonication in an ultrasonic water bath. Stock solutions were prepared weekly, stored at −20° C. and diluted fresh each day for dosing. A solution of 20% Cremophore RH40 (polyoxyl 40 hydrogenated castor oil; BASF Corp., Aktiengesellschaft, Ludwigshafen, Germany) in 5% dextrose in water (Abbott Laboratories, North Chicago, Ill., USA) was also prepared by first heating 100% Cremophore RH40 at 50-60° C. until liquefied and clear, diluting 1:5 with 100% D5W, reheating again until clear and then mixing well. This solution was stored at room temperature for up to 3 months prior to use. […]

[2] = system: MES-SA (uterine sarcoma); assay: In vitro cytotoxicity, MTS assay, MES-SA; format: cell-based, human; details: Homo sapiens, MES-SA (Uterine Carcinoma)
Procedure: (§3) The in vitro cytotoxicity of the compounds of the invention was determined in the following human cell lines: HL-60 (T-cell leukemia), MDA-435 and MCF-7 (human breast carcinoma), NCI-H460 and H29 (colon carcinoma), DU145 (prostate carcinoma), and MES-SA and MES-SA/DX5 (uterine sarcoma). MES-SA is a model of uterine sarcoma, and the cell are sensitive to a number of chemotherapeutic agents including doxorubicin, dactinomycin, mitomycin C, taxol and bleomycin, but resistant to vinblastine and cisplatin. MES-SA/Dx5 was established in the presence of increasing concentrations of doxorubicin. […] All cells were purchased from ATCC.
(§4) The cell lines were maintained in RPMI1640 (GIBCO) supplemented with 10% FCS, 100 units/mL penicillin, 100 ug/ml streptomycin, and 2 mM L-glutamine. Cells were split every third day and diluted to a concentration of 2×10^5 cells/mL one day before the experiment was performed. All experiments were performed on exponentially growing cell cultures. Cell densities were 2.5×10^4 cells/mL in all experiments.
(§5) Compounds of the invention were prepared by dissolving the compound at a concentration of 10 mM in 100% DMSO. Final concentrations 10, 1, 0.1, 0.01 and 0.001 μM were obtained by diluting the stock solution directly into the tissue culture medium.

[3] = Body weight change in MDA-MB-435S xenograft study (Example 10); format: in vivo, nude mouse; details: Compound 169 at 2 and 1 mg/kg, Compound 174 at 4.55 and 2.28 mg/kg body weight, i.v., 1 time per week, 3 doses; Hydrochloride
Procedure: as §1
as §2, with “use. To prepare DRD formulations for daily dosing, DMSO stock solutions were diluted 1:10 with 20% Cremophore RH40.” for “use.”

[4] = Body weight change in EMT6 tumor growth study; format: in vivo, nude mouse
Procedure: Seven to eight week old, female Crl:CD-1-nuBR (nude) mice were obtained from Charles River Laboratories (Wilmington, Mass., USA). Animals were housed 4-5/cage in micro-isolators, with a 12 hr/12 hr light/dark cycle, acclimated for at least 1 week prior to use and fed normal laboratory chow ad libitum. Studies were conducted on animals between 8 and 10 weeks of age at implantation. To implant EMT6 tumor cells into nude mice, the cells were trypsinized as above, washed in PBS and resusupended at a concentration of 10×10^6 cells/mL in PBS. Using a 27 gauge needle and 1 cc syringe, 0.1 mL of the cell suspension was injected subcutaneously into the flank of each nude mouse. Tumor-bearing animals were given single intravenous (i.v.) bolus injections of either vehicle or Compound 174 at 10 mL per kg body weight. To measure the effect of the drug treatment on tumor growth rates, tumor volumes were measured 3 days after dosing (FIG. 22).

[5] = system: MES-SA/DX5 (uterine sarcoma, MDR-1); assay: cells; format: cell-based; details: Homo sapiens, MDR1, 72 h, MES/DX5 (MDR-1), MTS assay
Procedure: as §3, §4, §5

[6] = system: HL-60 (T-cell leukemia); assay: In vitro cytotoxicity, MTS assay, HL-60; format: cell-based, human; details: Homo sapiens
Procedure: as §3, §4, §5

[7] = system: human tumor cell line MDA-MB-435S; assay: Nude mouse xenograft, MDA-MB-435S (Example 9); format: in vivo; details: i.v., 3 times per week
Procedure: FBS was obtained from ATCC and all other reagents were obtained from Invitrogen Corp. (Carlsbad, Calif., USA). […] To inactivate the trypsin, 5 mL of growth media was added and then the contents of the flask were centrifuged to pellet the cells. The supernatant was aspirated and the cell pellet was resuspended in 10 mL of growth media and the cell number determined using a hemocytometer.
Animals were housed 4-5/cage in micro-isolators, with a 12 hr/12 hr light/dark cycle, acclimated for at least 1 week prior to use and fed normal laboratory chow ad libitum.

[8] = system: Africa green monkey kidney fibroblasts (CV1 cells); assay: Microtubule depolymerization in CV-1 cells (anti-tubulin immunofluorescence); format: cell-based; details: 24 hr
Procedure: (§6) Depolymerizing microtubules not only kills dividing tumor cells but also induces disruption of newly generated blood vessels in tumor. The potency of Compound 249 in depolymerizing microtubules was examined in Africa green monkey kidney fibroblasts (CV1 cells) and primary human umbilical vein endothelium cells (HUVEC cells). The cells were treated with drugs (1, 10, 100, and 1000 nM for CV-1 and 1, 5, 10, 50, 100 nM for HUVEC) for 24 hr and fixed with 3% paraformaldehyde followed by cold methanol treatment to preserve both microtubule structures and depolymerized tubulin in the cytoplasm. The cells were stained with anti-tubulin antibody and subsequently fluorescent conjugated secondary antibody to visualize microtubule networks or cytoplasmic tubulin with fluorescent microscopy. As shown in FIG. 20 and FIG. 21, Compound 249 completely depolymerizes MT in a considerable proportion of CV1 cells at 10 nM and HUVEC cells at 1 nM (about 10% for both cell lines; data not shown). At 100 nM for CV1 and 5 nM for HUVEC cells, microtubules were completely depolymerized in nearly 100% cells. Tubulin staining in these cells was shown as cytoplasmic location and no microtubule structures were found in those cells. […] Compound 249 is a potent microtubule depolymerizing drug and HUVEC cells are extremely sensitive to Compound 249's anti-microtubule effect.

[9] = system: primary human umbilical vein endothelium cells (HUVEC cells); assay: Microtubule depolymerization in HUVEC cells (anti-tubulin immunofluorescence); format: cell-based; details: 24 hr
Procedure: as §6

Row | SMILES | % T/C [1] [%] | IC50 ([2]; 72 hours, read-out: IC50) [nM] | overt toxicity (effect on body weights) [3] | largest average percent change in body weight ([4]; 4.55 mg/kg body weight single i.v., one day after dosing) [%] | body weight lost by any individual animal ([4]; any point over the course of the study) [%] | IC50 [5] [nM] | IC50 ([6]; HL-60, HL60 (Leukemia), 72 hours, read-out: IC50) [nM] | tumor regression ([7]; paclitaxel at 7.5 mg/kg body weight, 10 doses) | tumor growth compared to vehicle ([7]; paclitaxel at 7.5 mg/kg) | IC50 ([2]; MES-SA, 72 h) [nM] | proportion of cells with completely depolymerized microtubules ([8]; 10 nM) | proportion of cells with completely depolymerized microtubules ([8]; 100 nM) [%] | microtubule structure ([9]; 1 nM) | proportion of cells with completely depolymerized microtubules ([9]; 1 nM) | proportion of cells with completely depolymerized microtubules ([9]; 5 nM) [%] | IC50 ([6]; HL-60, 72 h, HL60 (Leukemia)) [nM]
1 | COc1ccc(-c2cnoc2-c2cc(OC)c(OC)c(OC)c2)cc1NC(=O)C(N)Cc1ccccc1.Cl (centres unmarked) [Compound 174, 2-amino-N-(2-methoxy-5-(5-(3,4,5-trimethoxyphenyl)isoxazol-4-yl)phenyl)-3-phenylpropanamide Hydrochloride] | 25 | 0.1 | not overtly toxic; also recorded: not associated with overt toxicity | −7.3 | ≤ 11 | 0.1 | 2 |  |  |  |  |  |  |  |  | 
2 | CC(=O)O[C@H]1C(=O)[C@@]2(C)[C@H]([C@H](OC(=O)c3ccccc3)[C@]3(O)C[C@H](OC(=O)[C@H](O)[C@@H](NC(=O)c4ccccc4)c4ccccc4)C(C)=C1C3(C)C)[C@]1(OC(C)=O)CO[C@@H]1C[C@@H]2O [paclitaxel, Paclitaxel] |  |  |  |  |  |  |  | did not | decreased tumor growth |  |  |  |  |  |  | 
3 | COc1ccc(-c2cnoc2-c2cc(OC)c(OC)c(OC)c2)cc1N [Compound 249, 2-methoxy-5-(5-(3,4,5-trimethoxyphenyl)isoxazol-4-yl)aniline] |  |  |  |  |  | 1 |  |  |  | 1 | about 10% | ~100 | Fragmented microtubules were found | about 10% | ~100 | 1
